According to patent EP4737445A1, “NOVEL SATURATED HETEROCYCLE-SUBSTITUTED HETEROARYL-CARBONOHYDRAZONOYL DICYANIDE COMPOUND AND USE THEREOF” (Korea Institute of Science and Technology, priority 2023, dated 2025):
Like-named read-outs stand apart in the source and are kept apart here.

What was measured:
Tau = biological target: T1, Tau (Homo sapiens, UniProt P10636); assay: Tau aggregation inhibition in Tau-BiFC cell model (Forskolin-induced); format: cell-based
T1 construct: BiFC fluorescent-protein fragments (two complementary halves on two tau copies); expressed in transfected cells
Description: (§1) To screen for new tau aggregation inhibitors, a Tau-BiFC cell model that facilitates observation of tau oligomer formation in living cells was used. Tau-BiFC cells were dispensed into a 384-well plate, and the next day, the compounds prepared according to Examples 1 to 46 were treated at concentrations of 1, 3, and 10 µM, respectively, together with Forskolin (treatment concentration 30 µM), which is a compound that induces tau aggregation by activating the tau phosphorylation enzyme PKA. After 48 hours, nuclei within cells were stained using Hoechst (treatment concentration 2 µg/mL), and BiFC fluorescence intensity was automatically quantified using Operetta (Perkin Elmer) to count the stained nuclei in each well from the entire plate. The group treated only with Forskolin, which induces tau aggregation, was set as the reference point with 100% tau aggregation state, and the effect was confirmed by the formula "BiFC fluorescence intensity by the compounds synthesized according to the Examples of the disclosure/(fluorescence intensity of the control group treated only with Forskolin that induces tau aggregation - fluorescence intensity of the untreated control group) × 100". In addition, the degree of cytotoxicity induced by the newly synthesized compounds was also calculated using the formula "(number of stained nuclei in the compound-treated group/number of stained nuclei in the Forskolin-treated group) × 100", with the group treated only with Forskolin as the reference point at 100% viability. From the treatment results, substances that inhibit intracellular tau aggregation were identified through screening from a series of candidates based on the criteria of 70% or more tau aggregation inhibition and 100% cell viability at a compound treatment concentration of 10 µM.
(§2) To confirm the tau aggregation inhibitory effect according to the concentration of the compounds screened in Experimental Example 1, the screened compounds were treated to Tau-BiFC cells at concentrations of 0.03, 0.1, 0.3, 1, 3, 10, and 30 µM, respectively, together with Forskolin (treatment concentration 30 µM), which is a tau aggregation-inducing substance. After 48 hours, cell images were examined to analyze the tau aggregation reaction and degree of cytotoxicity. The IC50 and toxicity of the compounds were analyzed by nonlinear regression analysis using Prism software (GraphPad). The calculated results for representative compounds are shown in Table 3 below: Tau aggregation inhibitory effect and cell viability of novel compounds.

Tau-BiFC cells = assay: Cell viability (stained nuclei count) in Tau-BiFC cells; format: cell-based; conditions: @10 µM; Tau-BiFC cell line; Forskolin-only group = 100%
Description: as §1, §2

[1] = Liver microsomal stability, mouse; format: in vitro ADME; conditions: 1 µM compound; 0.5 mg/mL microsomes; NADPH; 30 minutes at 37°C
Description: Liver microsomal stability by the compounds prepared according to Examples 1 to 46 was confirmed. Specifically, four types of liver microsomes (human, dog, rat, and mouse each at 0.5 mg/mL), 0.1 M phosphate buffer solution (pH 7.4), and the compounds at 1 µM concentration were added and pre-incubated at 37°C for 5 minutes, and then NADPH generation system solution was added and incubated at 37°C for an additional 30 minutes. Thereafter, an acetonitrile solution containing an internal standard (chloropropamide) was added to terminate the reaction, and after centrifugation for 5 minutes (14,000 rpm, 4°C), the supernatant was injected into an LC-MS/MS system to analyze the substrate drug, thereby evaluating the metabolic stability of 8 compounds.
The amount of remaining substrate through the reaction was analyzed using a Shimadzu Nexera XR system and TSQ vantage (Thermo). A Kinetex XB-C18 (2.1 × 100 mm, 2.6 µm, particle size; Phenomenex, USA) was used as the HPLC column, and (A) distilled water containing 0.1% formic acid and (B) acetonitrile containing 0.1% formic acid were used as mobile phases. Analyst software (version 1.6.3) and Xcalibur (version 1.6.1) were used for data analysis. The calculated results are shown in Table 5 below: Liver microsomal stability data of novel compounds from […] (human, rat, and mouse).

CYP2C19 = biological target: T2, CYP2C19 (Homo sapiens, UniProt P33261); assay: CYP isoenzyme activity inhibition in human liver microsomes, CYP2C19; format: in vitro ADME; conditions: 10 µM compound; human liver microsomes 0.25 mg/mL; relative to control without compound
T2 construct: human liver microsomes (0.25 mg/mL); from tissue; host or cells: human liver microsomes
Description: (§3) The CYP isoenzyme activity inhibitory effect by the compounds prepared according to Examples 1 to 46 was confirmed. Specifically, human liver microsomes (0.25 mg/mL), 0.1 M phosphate buffer solution (pH 7.4), a substrate drug cocktail of five drug metabolizing enzymes (Phenacetin 50 µM, Diclofenac 10 µM, S-mephenytoin 100 µM, Dextromethorphan 5 µM, and Midazolam 2.5 µM), and the compounds were added at concentrations of 0 or 10 µM, respectively, and pre-incubated at 37°C for 5 minutes, and then NADPH generation system solution was added and incubated at 37°C for an additional 15 minutes. Thereafter, an acetonitrile solution containing an internal standard (Terfenadine) was added to terminate the reaction, and after centrifugation for 5 minutes (14,000 rpm, 4°C), the supernatant was injected into an LC-MS/MS system to simultaneously analyze the metabolites of the substrate drugs, thereby evaluating the drug metabolizing enzyme inhibitory activity.
(§4) The metabolites of each CYP isoenzyme marker drug generated through the reaction were analyzed using a Shimadzu Nexera XR system and TSQ vantage (Thermo). A Kinetex C18 (2.1 × 100 mm, 2.6 µm, particle size; Phenomenex, USA) was used as the HPLC column, and (A) distilled water containing 0.1% formic acid and (B) acetonitrile containing 0.1% formic acid were used as mobile phases, and a gradient program as shown in Table 6 below was applied.
(§5) The generated metabolites were quantified using MRM (Multiple Reaction Monitoring) quantitative mode, and Xcalibur (version 1.6.1) was used for data analysis. To show the CYP isoenzyme activity inhibitory effect of the novel compounds prepared according to the Examples of the disclosure, the % activity of CYP isoenzymes relative to the control group without compound addition is shown in Table 6 below. Additionally, to confirm the difference in effect according to substituents, Comparative Compounds 1 and 5, which are two compounds that share a similar parent nucleus structure with Compounds 1 to 46 of the disclosure while Cy is substituted with aromatic heteroaryl instead of saturated heterocyclyl, were selected as comparative compounds and their activities are shown together.

CYP2D6 = biological target: T3, CYP2D6 (Homo sapiens, UniProt P10635); assay: CYP isoenzyme activity inhibition in human liver microsomes, CYP2D6; format: in vitro ADME; conditions: 10 µM compound; human liver microsomes 0.25 mg/mL; relative to control without compound
T3 construct: human liver microsomes (0.25 mg/mL); from tissue; host or cells: human liver microsomes
Description: as §3, §4, §5

T1 sequence (P10636 1-441 isoform P10636-8): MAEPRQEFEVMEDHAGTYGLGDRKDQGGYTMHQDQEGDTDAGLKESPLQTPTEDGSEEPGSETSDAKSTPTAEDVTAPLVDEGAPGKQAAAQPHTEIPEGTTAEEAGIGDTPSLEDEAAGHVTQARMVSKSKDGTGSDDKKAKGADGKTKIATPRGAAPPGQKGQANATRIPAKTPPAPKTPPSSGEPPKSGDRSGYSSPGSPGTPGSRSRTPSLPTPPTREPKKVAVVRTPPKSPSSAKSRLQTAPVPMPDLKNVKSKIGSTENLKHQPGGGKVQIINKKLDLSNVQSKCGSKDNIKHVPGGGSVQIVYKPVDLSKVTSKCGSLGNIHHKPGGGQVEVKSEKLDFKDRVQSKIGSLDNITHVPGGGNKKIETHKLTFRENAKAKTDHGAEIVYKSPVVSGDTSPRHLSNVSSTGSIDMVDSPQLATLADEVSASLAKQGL
T2 sequence (P33261 whole entry): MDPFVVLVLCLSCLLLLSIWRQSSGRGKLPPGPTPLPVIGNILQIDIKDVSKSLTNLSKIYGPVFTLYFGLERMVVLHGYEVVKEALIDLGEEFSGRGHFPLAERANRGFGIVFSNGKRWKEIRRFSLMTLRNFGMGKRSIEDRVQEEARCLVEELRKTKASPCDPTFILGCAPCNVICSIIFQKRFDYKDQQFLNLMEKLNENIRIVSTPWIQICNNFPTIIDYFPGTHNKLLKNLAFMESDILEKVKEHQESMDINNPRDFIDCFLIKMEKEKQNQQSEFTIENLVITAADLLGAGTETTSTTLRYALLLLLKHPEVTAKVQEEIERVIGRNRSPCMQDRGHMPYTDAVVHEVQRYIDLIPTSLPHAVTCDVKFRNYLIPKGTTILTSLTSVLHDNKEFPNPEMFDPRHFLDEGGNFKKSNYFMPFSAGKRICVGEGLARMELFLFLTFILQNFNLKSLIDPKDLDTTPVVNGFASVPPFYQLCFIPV
T3 sequence (P10635 whole entry): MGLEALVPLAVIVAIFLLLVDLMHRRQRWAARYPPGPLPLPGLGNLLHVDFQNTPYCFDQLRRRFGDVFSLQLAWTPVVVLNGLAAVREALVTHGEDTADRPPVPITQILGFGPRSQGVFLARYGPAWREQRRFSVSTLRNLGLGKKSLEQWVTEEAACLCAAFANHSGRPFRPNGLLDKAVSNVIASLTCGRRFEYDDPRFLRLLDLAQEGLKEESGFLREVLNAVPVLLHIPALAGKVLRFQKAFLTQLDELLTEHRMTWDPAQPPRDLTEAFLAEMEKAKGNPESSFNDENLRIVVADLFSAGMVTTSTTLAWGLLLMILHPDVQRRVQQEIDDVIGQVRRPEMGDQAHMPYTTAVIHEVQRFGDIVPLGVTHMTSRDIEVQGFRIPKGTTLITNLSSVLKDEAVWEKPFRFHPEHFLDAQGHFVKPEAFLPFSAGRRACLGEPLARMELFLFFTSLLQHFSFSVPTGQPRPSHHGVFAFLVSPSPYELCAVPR

SMILES	IC50 (Tau)	Cell viability (% @10µM) (Tau-BiFC cells)	Mouse microsomes (% remaining) [1]	CYP2C19 (% activity) (CYP2C19)	CYP2D6 (% activity) (CYP2D6)	IC50 (Tau; read-out: Tau aggregation inhibitory effect IC50, Tau-BiFC cell line, Forskolin 30 µM, 48 hours, 0.03-30 µM)
N#CC(C#N)=NNc1ccc2oc(N3CCOCC3)nc2c1 [Compound 3, (2-morpholinobenzo[d]oxazol-5-yl)carbonohydrazonoyl dicyanide]	0.02 µM	100%	80.6 % remaining	> 100 % activity	> 100 % activity	
N#CC(C#N)=NNc1ccc2nc(N3CCOCC3)oc2c1 [Compound 4, (2-morpholinobenzo[d]oxazol-6-yl)carbonohydrazonoyl dicyanide]	0.056 µM	100%	98.5 % remaining	93.4 % activity	> 100 % activity	
CC1COCCN1c1nc2ccc(NN=C(C#N)C#N)cc2o1 (centres unmarked) [Compound 16, (2-(3-methylmorpholino)benzo[d]oxazol-6-yl)carbonohydrazonoyl dicyanide]	0.049 µM	100%	89.5 % remaining	> 100 % activity	92.1 % activity	
CC1COCCN1c1nc2ccc(NN=C(C#N)C#N)cc2s1 (centres unmarked) [Compound 13, (2-(3-methylmorpholino)benzo[d]thiazol-6-yl)carbonohydrazonoyl dicyanide]	0.02 µM	99%	84.8 % remaining	83.3 % activity	> 100 % activity	
N#CC(C#N)=NNc1ccc2nc(N3C4CCC3COC4)oc2c1 [Compound 20, (2-(3-oxa-8-azabicyclo[3.2.1]octan-8-yl)benzo[d]oxazol-6-yl)carbonohydrazonoyl dicyanide]	0.011 µM	96%	95.4 % remaining	51.8 % activity	57.5 % activity	
Cn1c(N2C3CCC2COC3)nc2ccc(NN=C(C#N)C#N)cc21 [Compound 34, (2-(3-oxa-8-azabicyclo[3.2.1]octan-8-yl)-1-methyl-1H-benzo[d]imidazol-6-yl)carbonohydrazonoyl dicyanide]	0.012 µM	100%	78.2 % remaining	80.6 % activity	92.4 % activity	
Cn1c(N2C3CCC2COC3)nc2cc(NN=C(C#N)C#N)ccc21 [Compound 35, (2-(3-oxa-8-azabicyclo[3.2.1]octan-8-yl)-1-methyl-1H-benzo[d]imidazol-5-yl)carbonohydrazonoyl dicyanide]	0.012 µM	100%	95.1 % remaining	82 % activity	94.9 % activity	
Cn1c(N2CCOCC2)nc2cc(NN=C(C#N)C#N)ccc21 [Compound 6, (1-methyl-2-morpholino-1H-benzo[d]imidazol-5-yl)carbonohydrazonoyl dicyanide]	0.024 µM	104%	87.3 % remaining	98.4 % activity	> 100 % activity	
N#CC(C#N)=NNc1ccc2sc(N3CCOCC3)nc2c1 [Compound 1, (2-morpholinobenzo[d]thiazol-5-yl)carbonohydrazonoyl dicyanide]	0.012 µM	100%	49.3 % remaining	> 100 % activity	> 100 % activity	
N#CC(C#N)=NNc1ccc2nc(N3CC[C@@H](F)C3)oc2c1 [Compound 41, (R)-(2-(3-fluoropyrrolidin-1-yl)benzo[d]oxazol-6-yl)carbonohydrazonoyl dicyanide]		100%	65.3 % remaining	86.7 % activity	86.8 % activity	0.26 µM
CC(=O)N1CCN(c2nc3ccc(NN=C(C#N)C#N)cc3o2)CC1 [Compound 31, (2-(4-acetylpiperazin-1-yl)benzo[d]oxazol-6-yl)carbonohydrazonoyl dicyanide]	0.088 µM	100%	> 100 % remaining	90.8 % activity	93.3 % activity	
CC(C)N1CCN(c2nc3ccc(NN=C(C#N)C#N)cc3s2)CC1 [Compound 27, (2-(4-isopropylpiperazin-1-yl)benzo[d]thiazol-6-yl)carbonohydrazonoyl dicyanide]	0.044 µM	99%		95.4 % activity	92.3 % activity	
CN1CCN(c2nc3ccc(NN=C(C#N)C#N)cc3o2)CC1 [Compound 14, (2-(4-methylpiperazin-1-yl)benzo[d]oxazol-6-yl)carbonohydrazonoyl dicyanide]	0.048 µM	100%		95.5 % activity	> 100 % activity	
N#CC(C#N)=NNc1ccc2nc(N3CCNCC3)oc2c1 [Compound 25, (2-(piperazin-1-yl)benzo[d]oxazol-6-yl)carbonohydrazonoyl dicyanide]	0.036 µM	94%		85.7 % activity	93.5 % activity	
N#CC(C#N)=NNc1ccc2nc(N3CCNCC3)sc2c1 [Compound 24, (2-(piperazin-1-yl)benzo[d]thiazol-6-yl)carbonohydrazonoyl dicyanide]	0.168 µM	95%		67.9 % activity	74.2 % activity	
